Assay results from US12358904B2, “Inhibitors of TYK2” (Atomwise Inc., priority 2023, dated 2025).

Key:
TYK2-JH2 = target: T1, TYK2-JH2 (Homo sapiens, UniProt P29597); assay: TYK2-JH2 HTRF binding assay (ligand efficiency); conditions: calculated from IC50 of the TYK-JH2 binding assay (Equation 1)
T1 construct: TYK JH2 enzyme mix (ChemPartnec CP20210818A-BV); purchased ChemPartner CP20210818A-BV
Protocol: The following example describes the TYK2-JH2 HTRF binding assay used to determine the ligand efficiency of the TYK2 inhibitors.
To calculate ligand efficiency, Equation 1 is applied:
[formula] in which IC50 comes from the binding assay used to determine compound potency.
TYK JH2 enzyme mix (ChemPartnec CP20210818A-BV), tracer (ChemPartnec CP-0029472-051) and mAb Anti-6HIS Tb cryptate Gold (Cisbio: Cat No. 61H12TLA) mix were prepared in assay buffer (10 mM MgCl2, 20 mM HEPES pH 7.5, 0.01% Triton X-100, 1 mM DTT). Compounds diluted in DMSO (Final Concentrations 0.1 to 0.000005 [μM]) and enzyme mix (0.5 nM Final Concentration) were added to 384 well plates, briefly centrifuged and incubated at room temperature for 10 minutes. After incubation, tracer mix (Tracer-35 nM final concentration); (Mab Anti-6HIS Tb cryptate Gold-0.5× final)) was added, briefly centrifuged then incubate at room temperature 60 minutes. After incubation, plates were read by Envision TR-FRET (Ex340/Em495/520) protocol (PerkinElmer-Envision 2104 multilabel plate reader).

IL-12/pSTAT4 = assay: IL-12 induced pSTAT4 assay in NK-92 cells; assay type: cell-based; conditions: Homo sapiens, NK92, IL-12 stimulation, read-out: Cellular potency (IL-12/pSTAT4)
Protocol: The following example describes the IL-12 induced pSTAT4 assay used to determine the cellular potency (IL-12/pSTAT4) of the TYK2 inhibitors.
NK-92 cells (human natural killer lymphoma cell line) were cultured in MEM α, nucleosides (Life Technologies, 22571020) 12.5% heat inactivated FBS (Dominique Dutscher, S1810), 12.5% heat inactivated Horse serum (Life Technologies, 26050088) and 1% Penicillin-Streptomycin (Life Technologies, 15140122), 5 ng/mL human IL-2 (R&D systems, 202-II/CF), 0.2 mM inositol (Sigma, PHR1351 lot LRAC4118), 0.1 mM β-mercaptoethanol (Life Technologies, 31350010), and 0.02 mM folic acid (Sigma, F8758).
NK-92 cells were starved overnight in starvation medium (Opti-MEM (ThermoFisher, 11058-021), 10% charcoal stripped FBS (ThermoFisher 12676-029), and 1% Penicillin (100U/ml)-Streptomycin (100 μg/ml) (ThermoFisher, ref 15140122)), then plated in a 96-well tissue culture plate (20K cells/well) prior to pre-incubation with test compounds (Final Concentration [nM] 1000 to 0.05) for 30 minutes at 37° C. Cells were stimulated with IL-12 (Final Concentration l0 ng/ml) for 30 minutes at 37° C., and terminated by addition of lysis buffer (MSD K150PAD-2). pSTAT4 (Tyr693) was detected using the Mesa Scale Discovery platform (MSD K150PAD-2), according to manufacturer's instruction. Briefly, cell lysates were added to pre-blocked plates and incubated for 1 hour at room temperature. Plates were washed and incubated with detection antibody for 1 hour at room temperature. Plates were washed and Read Buffer was added prior to measurement on the MSD (1300 MSD Quickplex SQ 120).

T1 sequence (P29597 589-875 limits assumed): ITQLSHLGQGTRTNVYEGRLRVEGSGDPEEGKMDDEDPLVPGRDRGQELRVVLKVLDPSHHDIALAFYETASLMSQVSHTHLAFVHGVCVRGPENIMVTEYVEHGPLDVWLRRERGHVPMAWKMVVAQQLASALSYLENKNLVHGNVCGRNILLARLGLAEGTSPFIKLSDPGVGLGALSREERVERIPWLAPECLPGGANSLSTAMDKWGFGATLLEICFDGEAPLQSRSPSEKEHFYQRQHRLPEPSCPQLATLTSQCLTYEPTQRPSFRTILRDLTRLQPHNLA

Structure (SMILES)	Ligand Efficiency (TYK2-JH2)	IC50 (IL-12/pSTAT4) [nM]
CS(=O)(=O)c1cccnc1Nc1cc(Nc2ccc(N3CCN(C4CC4)CC3)cn2)ncn1 [Compound 7, N^4-(5-(4-cyclopropylpipeiazin-1-yl) 83yridine-2-yl)-N^6-(3-(methylsulfonyl)83yridine-2-yl)pyrimidine-4,6-diamine]	††† (†††: >0.39)	< 100
C[C@@H](c1ccc(Nc2cc(Nc3ncc(Cl)cc3S(C)(=O)=O)ncn2)nc1)N1CC2(COC2)C1 [Compound 14, (S)—N^4-(5-(1-(2-oxa-6-azaspiro[3.3]heptan-6-yl)ethyl) 95yridine-2-yl)-N^6-(5-chloro-3-(methylsulfonyl)95yridine-2-yl)pyrimidine-4,6-diamine]	††† (†††: >0.39)	< 100
C[C@@H](c1ccc(Nc2cc(Nc3ncccc3S(C)(=O)=O)ncn2)nc1)N1CCCC1 [Compound 15, I-N^4-(3-(methylsulfonyl)97yridine-2-yl)-N^6-(5-(1-(97yridine9797e-1-yl)ethyl)97yridine-2-yl)pyrimidine-4,6-diamine]	††† (†††: >0.39)	< 100
CS(=O)(=O)c1cccnc1Nc1cc(Nc2ccc([C@@H](N3CC4(COC4)C3)C(F)(F)F)cn2)ncn1 [Compound 16, I-N^4-(3-(methylsulfonyl)98yridine-2-yl)-N^6-(5-(2,2,2-trifluoro-1-(2-oxa-6-azaspiro[3.3]heptan-6-yl)ethyl)98yridine-2-yl)pyrimidine-4,6-diamine]	†† (††: 0.37-0.39)	< 100
C[C@H]1CN(C)CCN1c1ccc(Nc2cc(Nc3ncccc3S(C)(=O)=O)ncn2)nc1 [Compound 20, (S)—N^4-(5-(2,4-dimethylpiperazin-1-yl)101yridine-2-yl)-N^6-(3-(methylsulfonyl)101yridine-2-yl)pyrimidine-4,6-diamine]	††† (†††: >0.39)	< 100
CS(=O)(=O)c1cccnc1Nc1cc(Nc2ccc(N3CCC4(CCO4)CC3)cn2)ncn1 [Compound 24, N^4-(5-(1-oxa-7-azaspiro[3.5]nonan-7-yl)104yridine-2-yl)-N^6-(3-(methylsulfonyl)104yridine-2-yl)pyrimidine-4,6-diamine]	†† (††: 0.37-0.39)	< 100
C[C@@H](c1ccc(Nc2cc(Nc3ncccc3S(C)(=O)=O)ncn2)nc1)N1C[C@H]2COC[C@H]2C1 [Compound 25, N^4-(3-(methylsulfonyl)105yridine-2-yl)-N^6-(5-(1-((3aR,6aS)-tetrahydro-1H-furo[3,4-c]pyrrol-5 (3H)-yl)ethyl)105yridine-2-yl)pyrimidine-4,6-diamine]	††† (†††: >0.39)	< 100
C[C@@H](c1ccc(Nc2cc(Nc3ncccc3S(C)(=O)=O)ncn2)nc1)N1CCCC12CCOCC2 [Compound 29, (S)—N^4-(5-(1-(8-oxa-1-azaspiro[4.5]decan-1-yl)ethyl)111yridine-2-yl)-N^6-(3-(methylsulfonyl)111yridine-2-yl)pyrimidine-4,6-diamine]	†† (††: 0.37-0.39)	< 100
C[C@H](c1ccc(Nc2cc(Nc3ncccc3S(C)(=O)=O)ncn2)nc1)N1CCC2(CCOCC2)C1 [Compound 30, I-N^4-(5-(1-(8-oxa-2-azaspiro[4.5]decan-2-yl)ethyl)112yridine-2-yl)-N^6-(3-(methylsulfonyl)112yridine-2-yl)pyrimidine-4,6-diamine]	†† (††: 0.37-0.39)	< 100
C[C@@H](c1ccc(Nc2cc(Nc3ncccc3S(C)(=O)=O)ncn2)nc1)N1CC2(CCOCC2)C1 [Compound 31, I-N^4-(5-(1-(7-oxa-2-azaspiro[3.5]nonan-2-yl)ethyl)pyridine-2-yl)-N^6-(3-(methylsulfonyl)114yridine-2-yl)pyrimidine-4,6-diamine]	†† (††: 0.37-0.39)	< 100
C[C@@H](c1ccc(Nc2cc(Nc3ncccc3S(C)(=O)=O)ncn2)nc1)N1CC2(CCOC2)C1 [Compound 32, (S)—N^4-(5-(1-(6-oxa-2-azaspiro[3.4]octan-2-yl)ethyl)114yridine-2-yl)-N^6-(3-(methylsulfonyl)114yridine-2-yl)pyrimidine-4,6-diamine]	††† (†††: >0.39)	< 100
CC(C)(c1ccc(Nc2cc(Nc3ncccc3S(C)(=O)=O)ncn2)nc1)N1CC2(CCOCC2)C1 [Compound 33, N^4-(5-(2-(7-oxa-2-azaspiro[3.5]nonan-2-yl)propan-2-yl)118yridine-2-yl)-N^6-(3-(methylsulfonyl)118yridine-2-yl)pyrimidine-4,6-diamine]	†† (††: 0.37-0.39)	< 100
CC(c1ccc(Nc2cc(Nc3ncccc3S(C)(=O)=O)ncn2)nc1)N1CC2(CC(C(F)F)C2)C1 (stereo not drawn) [Compound 34, N^4-(5-(1-(6-(difluoromethyl)-2-azaspiro[3.3]heptan-2-yl)ethyl) 120yridine-2-yl)-N^6-(3-(methylsulfonyl)120yridine-2-yl)pyrimidine-4,6-diamine]	†† (††: 0.37-0.39)	< 100
CC1(CNc2ccc(Nc3cc(Nc4ncccc4S(C)(=O)=O)ncn3)nc2)COC1 [Compound 36, N^4-(5-(((3-methyloxetan-3-yl)methyl)amino)123yridine-2-yl)-N^6-(3-(methylsulfonyl)123yridine-2-yl)pyrimidine-4,6-diamine]	††† (†††: >0.39)	< 100
CS(=O)(=O)c1cccnc1Nc1cc(Nc2ccc(NC3CC(F)(F)C3)cn2)ncn1 [Compound 37, N^4-(5-(3,3-difluorocyclobutylamino)124yridine-2-yl)-N^6-(3-(methylsulfonyl)124yridine-2-yl)pyrimidine-4,6-diamine]	††† (†††: >0.39)	< 100
CS(=O)(=O)c1cccnc1Nc1cc(Nc2ccc(C(=O)NC3CC(F)(F)C3)cn2)ncn1 [Compound 38, N-(3,3-difluorocyclobutyl)-6-(6-(3-(methylsulfonyl)pyridine-2-ylamino)pyrimidin-4-ylamino)nicotinamide]	††† (†††: >0.39)	< 100
C[C@H](NC1COC1)c1ccc(Nc2cc(Nc3ccccc3S(C)(=O)=O)ncn2)nc1 [Compound 40, I-N^4-(2-(methylsulfonyl)phenyl)-N^6-(5-(1-(oxetan-3-ylamino)ethyl)128yridine-2-yl)pyrimidine-4,6-diamine]	††† (†††: >0.39)	100 to 1000
Cc1cccc(Nc2cc(Nc3ccccc3C(N)=O)nc(N)n2)n1 [Compound 55, 2-((2-amino-6-((6-methylpyridin-2-yl)amino)pyrimidin-4-yl)amino)benzamide]	†† (††: 0.37-0.39)	
Cc1cccc(Nc2cc(Nc3ccccc3S(C)(=O)=O)nc(C)n2)n1 [Compound 56, 2-methyl-N^4-(6-methylpyridin-2-yl)-N^6-(2-(methylsulfonyl)phenyl) pyrimidine-4,6-diamine]	† (†: <0.37)	
Cc1cccc(Nc2cc(Nc3ccccc3S(C)(=O)=O)nc(N)n2)n1 [Compound 57, N^4-(6-methylpyridin-2-yl)-N^6-(2-(methylsulfonyl)phenyl)pyrimidine-2,4,6-triamine]	††† (†††: >0.39)	
CC1(Nc2ccc(Nc3cc(Nc4ncccc4S(C)(=N)=O)ncn3)nc2)COC1 (stereo not drawn) [Compound 73, N^4-(5-((3-methyloxetan-3-yl)amino)166yridine-2-yl)-N^6-(3-(S-methylsulfonimidoyl)166yridine-2-yl)pyrimidine-4,6-diamine]	††† (†††: >0.39)	
CC(c1ccc(Nc2ncnc(Nc3ncccc3S(C)(=O)=O)c2F)nc1)N1CC2(COC2)C1 (stereo not drawn) [Compound 75, N^4-(5-(1-(2-oxa-6-azaspiro[3.3]heptan-6-yl)ethyl)168yridine-2-yl)-5-fluoro-N^6-(3-(methylsulfonyl)168yridine-2-yl)pyrimidine-4,6-diamine]	† (†: <0.37)	
